Measurements: patent publication US20260355097A1, “MICROBIOME FRIENDLY SUBSTANCES AND MICROBIOME FRIENDLY COSMETIC FORMULATIONS” (BASF SE, priority 2023, published 2026)
Counter-ions that a name gives are not always drawn.

Tested on: Staphylococcus aureus, Staphylococcus epidermidis, Malassezia furfur
Assay: Lowest MIC over the microorganisms tested
Type: cell-based
Conditions: lowest MIC value obtained over the tested microorganisms
Procedure: Minimal Inhibitory Concentration tests are tests typically used to measure growth inhibition by a substance. MICs are defined as the lowest test concentrations of the test substance at which growth of specific microorganisms are inhibited.
In the present case predefined dilutions of the test substance in the appropriate culture medium were prepared and inoculated with the microorganism of interest. After incubation, the test organisms were cultured over a time-period and under conditions normally allowing growth of the microorganism. Vehicle controls (vehicle=solvent used, e. g. water) were also assessed to determine growth without the test substance. The organisms of interest tested were the representative strains S. aureus (found on the skin, often a pathogen), S. epidermidis and Malassezia furfur. The higher the MIC value, the less inhibition of growth is observed. In the following results the test concentrations are given as percent of active substance content.
For each substance the lowest MIC value obtained determines whether this substance in useful as microbiome friendly cosmetic ingredient. A substance is useful as microbiome friendly cosmetic ingredient, if this lowest MIC is not lower than a threshold value. This threshold value depends on the type of the substance (solubilizer, emulsifier etc.) and is related to the amount in which these types of substances are generally used in common cosmetic formulations.

Compound | lowest MIC
OCCCCO [1.4 Butandiol, 1,4 Butandiol] | >1 % by weight
CC(O)CCO (stereo not drawn) [Butylene Glycol, 1,3-Butanediol] | 20.00 % by weight
OCC(O)CO [Glycerin] | 20.00 % by weight
CCCCCCCC/C=C\CCCCCCCC(=O)OCC(O)CO (stereo not drawn) [Glyceryl Oleate] | >2 % by weight
CCCCCCCCCCCCCCCCCC(=O)OCC(O)CO.O=C(O)CC(O)(CC(=O)O)C(=O)O (stereo not drawn) [Glyceryl Stearate Citrate] | >3 % by weight
CCCCCCCCCCCCCCCCOP(=O)([O-])[O-].[K+].[K+] [Potassium Cetyl Phosphate] | 1.00 % by weight
O=C(O)c1ccccc1 [Sodium Benzoate] | 0.25 % by weight
CCOC(=O)CC(O)(CC(=O)OCC)C(=O)OCC [Triethyl Citrate] | 1 % by weight
CCCCC/C=C\C/C=C\CCCCCCCC(=O)OCC [ethyl linoleate] | >1 % by weight
Conjugated Linoleic Acid | >1 % by weight
Disodium Cetearyl Sulfosuccinate | 0.05 % by weight
Sodium Cetearyl Sulfate | 0.08 % by weight
